Assay results from patent US20160325113A1, “Phototherapy Devices and Methods Comprising Optionally Substituted Quinquiesphenyl Compounds” (NITTO DENKO CORPORATION, priority 2012, published 2016).
Where two headings read alike, the source gives them in different places.

What was measured:
[1] = tested on: actinic keratoses lesions; test: Topical photosensitizer plus red OLED illumination of actinic keratoses lesions; settings: 20% topical solution; illuminated with red OLED about 14-18 hours after application
Protocol: About 14-18 hours after application, the treated lesions are illuminated with a red light-emitting OLED device constructed as set forth in Example 2.
The treatment is repeated as needed.
The excess cream is removed with saline, and the lesions are illuminated with the red light-emitting OLED constructed as set forth in Example 2.

[2] = Intravenous verteporphin plus red OLED illumination of the retina, age-related macular degeneration; assay type: in vivo, person; settings: about 6 mg/m^2 i.v.; retina illuminated with red OLED about 15 minutes after start of infusion
Protocol: Verteporphin is intravenously injected, over a period of about 10 minutes at a rate of about 3 mL/min, to a person suffering from age-related macular degeneration. The verteporphin (7.5 mL of 2 mg/mL reconstituted solution, available as Visudyne® from Novartis) is diluted with 5% dextrose to a volume of 30 mL using a sufficient quantity of the reconstituted verteporphin so that the total dose injected is about 6 mg/m^2 of body surface. About 15 minutes after the start of the 10 minute infusion of verteporphin, the verteporphin is activated by illuminating the retina with a red light-emitting OLED device as set forth in Example 2.

[3] = Intravenous verteporphin plus red OLED illumination of the retina, pathological myopia; assay type: in vivo, person; settings: about 6 mg/m^2 i.v.; retina illuminated with red OLED about 15 minutes after start of infusion
Protocol: Verteporphin is intravenously injected, over a period of about 10 minutes at a rate of about 3 mL/min, to a person suffering from pathological myopia. The verteporphin (7.5 mL of 2 mg/mL reconstituted solution, available as Visudyne® from Novartis) is diluted with 5% dextrose to a volume of 30 mL using a sufficient quantity of the reconstituted verteporphin so that the total dose injected is about 6 mg/m^2 of body surface. About 15 minutes after the start of the 10 minute infusion of verteporphin, the verteporphin is activated by illuminating the retina with a red light-emitting OLED device as set forth in Example 2. […] The treatment is repeated as needed.

[4] = parameters: species or system person; settings: in vivo, iv

| SMILES | number or severity of the lesions after treatment [1] | patient's vision after treatment [2] | patient's vision after treatment [3] | patient's vision after treatment [4] |
| --- | --- | --- | --- | --- |
| Cl.NCC(=O)CCC(=O)O [5-Aminolevulinic acid HCl] | reduced | – | – | – |
| C=Cc1c(C)c2cc3nc(cc4[nH]c(cc5nc(cc1[nH]2)C(C)=C5CCC(=O)O)c(CCC(=O)OC)c4C)[C@@]1(C)C3=CC=C(C(=O)OC)[C@H]1C(=O)OC [Verteporphin] | – | stabilized | stabilized | stabilized |
